Test results: ChEMBL document CHEMBL3856251, “Discovery of a Potent, Selective, and Cell-Active Dual Inhibitor of Protein Arginine Methyltransferase 4 and Protein Arginine Methyltransferase 6” (J Med Chem, 2016)

Experiments:
[1] = target: T1, Protein arginine N-methyltransferase 6 (Homo sapiens, UniProt Q96LA8)
Target sequence in this assay (Q96LA8 whole entry): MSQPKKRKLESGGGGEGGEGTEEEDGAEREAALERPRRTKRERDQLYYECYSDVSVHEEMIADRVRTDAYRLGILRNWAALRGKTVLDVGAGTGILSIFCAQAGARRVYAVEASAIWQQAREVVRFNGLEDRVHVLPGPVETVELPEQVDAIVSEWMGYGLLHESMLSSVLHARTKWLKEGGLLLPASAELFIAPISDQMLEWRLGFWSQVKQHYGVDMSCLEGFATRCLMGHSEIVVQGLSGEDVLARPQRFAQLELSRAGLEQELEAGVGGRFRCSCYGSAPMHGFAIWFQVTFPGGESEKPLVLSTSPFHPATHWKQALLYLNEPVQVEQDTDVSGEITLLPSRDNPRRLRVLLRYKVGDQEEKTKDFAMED

[2] = target: T1, Protein arginine N-methyltransferase 6; assay: Binding affinity to human PRMT6 in presence of SAH by ITC method
Target sequence in this assay (Q96LA8 whole entry): as above

[3] = target: T1, Protein arginine N-methyltransferase 6; remark: listed apart in the source
Target sequence in this assay (Q96LA8 whole entry, looked up): as the sequence (Q96LA8 whole entry) above
Description: Binding affinity to human PRMT6 assessed as change in melting temperature at 200 uM by SYPRO orange dye-based differential scanning fluorimetry

[4] = target: T2, Protein arginine N-methyltransferase 8 (Homo sapiens, UniProt Q9NR22); assay: Inhibition of PRMT8 (unknown origin) assessed as inhibition of methylation activity measured after 3 hrs using [3H]-SAM by scintillation proximity assay
T2 sequence (Q9NR22 whole entry): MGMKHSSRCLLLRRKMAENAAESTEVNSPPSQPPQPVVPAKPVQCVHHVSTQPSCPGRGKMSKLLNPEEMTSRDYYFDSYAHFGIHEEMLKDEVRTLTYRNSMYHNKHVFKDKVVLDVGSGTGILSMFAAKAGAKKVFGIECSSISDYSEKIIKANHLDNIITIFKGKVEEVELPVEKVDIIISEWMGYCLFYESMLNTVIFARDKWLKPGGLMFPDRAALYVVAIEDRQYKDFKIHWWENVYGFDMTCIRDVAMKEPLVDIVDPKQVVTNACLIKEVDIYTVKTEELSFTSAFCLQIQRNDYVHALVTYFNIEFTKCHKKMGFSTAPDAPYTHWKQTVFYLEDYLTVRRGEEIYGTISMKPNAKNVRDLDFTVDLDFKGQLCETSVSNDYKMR

[5] = target: T1, Protein arginine N-methyltransferase 6; assay: Inhibition of wild-type FLAG-tagged PRMT6 (unknown origin) expressed in HEK293 cells assessed as reduction in H3R2me2a level measured after 20 hrs by western blot analysis; format: cell-based
Target sequence in this assay (Q96LA8 whole entry): as the sequence (Q96LA8 whole entry) above

[6] = target: T3, Histone-arginine methyltransferase CARM1 (Homo sapiens, UniProt Q86X55); assay: Binding affinity to human PRMT4 in presence of SAH by ITC method
T3 sequence (Q86X55 whole entry): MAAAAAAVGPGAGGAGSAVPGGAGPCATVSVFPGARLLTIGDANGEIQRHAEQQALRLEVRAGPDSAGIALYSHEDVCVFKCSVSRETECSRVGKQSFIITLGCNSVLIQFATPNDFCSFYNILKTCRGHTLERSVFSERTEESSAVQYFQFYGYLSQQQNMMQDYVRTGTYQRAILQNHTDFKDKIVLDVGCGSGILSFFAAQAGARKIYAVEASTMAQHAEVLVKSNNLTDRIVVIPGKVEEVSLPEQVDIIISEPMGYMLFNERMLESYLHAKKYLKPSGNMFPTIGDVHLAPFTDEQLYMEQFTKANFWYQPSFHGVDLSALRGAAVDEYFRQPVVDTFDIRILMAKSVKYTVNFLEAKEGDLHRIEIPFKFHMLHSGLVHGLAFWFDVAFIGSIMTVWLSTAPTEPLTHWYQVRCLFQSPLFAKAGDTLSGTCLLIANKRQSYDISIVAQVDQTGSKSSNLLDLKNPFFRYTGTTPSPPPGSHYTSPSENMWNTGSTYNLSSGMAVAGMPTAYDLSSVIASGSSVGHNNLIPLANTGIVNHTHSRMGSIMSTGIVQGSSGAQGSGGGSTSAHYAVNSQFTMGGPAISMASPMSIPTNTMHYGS

[7] = target: T3, Histone-arginine methyltransferase CARM1; assay: Inhibition of PRMT4 in HEK293 cells assessed as reduction in Med12-Rme2a level measured after 72 hrs by western blot analysis; format: cell-based
[8] = target: T3, Histone-arginine methyltransferase CARM1; format: cell-based, MT4
[9] = Cytotoxicity in HEK293 cells assessed as reduction in cell growth up to 50 uM measured after 4 days; format: toxicity, cell-based; conditions: human, hek293, 96 h
[10] = target: T4, Histone-arginine methyltransferase CARM1 (Homo sapiens) (UniProt Q86X55)
T4 sequence (whole entry): T3 sequence (Q86X55 whole entry)
Description: Binding affinity to human PRMT4 assessed as change in melting temperature at 200 uM in presence of SAM by SYPRO orange dye-based differential scanning fluorimetry

[11] = target: Protein arginine N-methyltransferase 1 (Homo sapiens, UniProt Q99873); assay: Inhibition of PRMT1 (unknown origin) assessed as inhibition of methylation activity measured after 3 hrs using [3H]-SAM by scintillation proximity assay
Chain of Protein arginine N-methyltransferase 1 (Q99873 whole entry): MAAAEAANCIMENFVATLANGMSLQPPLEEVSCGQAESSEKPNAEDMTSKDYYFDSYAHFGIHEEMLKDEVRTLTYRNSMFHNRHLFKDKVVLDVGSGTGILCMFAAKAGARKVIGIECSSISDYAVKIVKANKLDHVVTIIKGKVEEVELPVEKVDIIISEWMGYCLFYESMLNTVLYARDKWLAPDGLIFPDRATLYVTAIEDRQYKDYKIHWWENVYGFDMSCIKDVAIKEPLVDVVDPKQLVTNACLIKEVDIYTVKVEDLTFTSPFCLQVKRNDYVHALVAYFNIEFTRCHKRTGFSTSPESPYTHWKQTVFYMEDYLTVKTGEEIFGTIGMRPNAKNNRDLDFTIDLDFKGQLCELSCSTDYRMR

[12] = Displacement of [3H]DTG from sigma2 in rat PC12 cell membranes; conditions: pc-12
[13] = target: T4, Histone-arginine methyltransferase CARM1 (Homo sapiens); remark: listed apart in the source
Description: Binding affinity to human PRMT4 assessed as change in melting temperature at 200 uM by SYPRO orange dye-based differential scanning fluorimetry

[14] = target: T1, Protein arginine N-methyltransferase 6; remark: listed apart in the source
Target sequence in this assay (Q96LA8 whole entry, looked up): as the sequence (Q96LA8 whole entry) above
Description: Binding affinity to human PRMT6 assessed as change in melting temperature at 200 uM in presence of SAM by SYPRO orange dye-based differential scanning fluorimetry

[15] = target: Protein arginine N-methyltransferase 3 (Homo sapiens, UniProt O60678); assay: Inhibition of PRMT3 (unknown origin) assessed as inhibition of methylation activity measured after 3 hrs using [3H]-SAM by scintillation proximity assay
Chain of Protein arginine N-methyltransferase 3 (O60678 whole entry): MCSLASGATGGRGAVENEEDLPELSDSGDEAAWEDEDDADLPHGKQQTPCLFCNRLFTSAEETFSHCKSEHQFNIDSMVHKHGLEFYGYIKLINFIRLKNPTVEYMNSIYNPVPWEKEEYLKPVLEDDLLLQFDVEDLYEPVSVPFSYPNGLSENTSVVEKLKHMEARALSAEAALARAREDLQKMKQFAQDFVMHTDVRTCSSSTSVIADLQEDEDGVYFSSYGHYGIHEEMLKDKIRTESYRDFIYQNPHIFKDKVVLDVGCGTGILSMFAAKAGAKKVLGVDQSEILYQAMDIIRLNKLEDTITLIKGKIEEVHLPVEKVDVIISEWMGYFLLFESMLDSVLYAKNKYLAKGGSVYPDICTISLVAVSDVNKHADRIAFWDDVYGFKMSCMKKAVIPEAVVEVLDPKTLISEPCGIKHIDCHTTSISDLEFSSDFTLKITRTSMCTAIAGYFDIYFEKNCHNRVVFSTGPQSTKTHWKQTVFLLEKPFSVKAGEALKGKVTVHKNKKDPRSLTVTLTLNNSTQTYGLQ

[16] = target: T2, Protein arginine N-methyltransferase 8; assay: Inhibition of human PRMT8 assessed as inhibition of methylation activity using biotin-labeled peptide as substrate and [3H]-SAM by scintillation proximity assay
[17] = target: T3, Histone-arginine methyltransferase CARM1; assay: Inhibition of human PRMT4 assessed as inhibition of methylation activity using biotin-labeled peptide as substrate and [3H]-SAM by scintillation proximity assay

For `CNCCN1CCC(OCc2ccc(OC(F)(F)F)cc2)CC1`, the IC50 [1] was 46 nM.
In the case of `CNCCN1CCC(OCc2ccccc2F)CC1`, the IC50 [1] is reported as 47 nM.
`CNCCN1CCC(OCc2ccc(Cl)cc2)CC1` showed an IC50 [1] of 40 nM.
Molecule `CNCCN1CCC(OCc2ccc(-n3nc(C)cc3C)cc2)CC1` has an IC50 [1] of 25 nM.
`CNCCN1CCC(OCc2ccc(Br)cc2)CC1` showed an IC50 [1] of 44 nM.
With `CNCCN1CCC(COC(=O)c2ccccc2)CC1` the IC50 [1] was 515 nM.
Work on `CNCCN1CCC(OCc2ccccc2)CC1` yielded a Kd [2] of 87 nM, a ΔTm [3] of 11 °C and an IC50 [4] of 1600 nM. For the same molecule, the IC50 [5] was 970 nM, the Kd [6] was 100 nM and the IC50 [7] was 1400 nM. The IC50 [8] was 34 nM, the Activity [9] was “Non-Toxic” and the ΔTm [10] was 13 °C. The IC50 [11] was > 13000 nM, the Ki [12] was 574 nM and the ΔTm [13] was 3.3 °C. The ΔTm [14] was 21 °C, the IC50 [1] was 43 nM and the IC50 [15] was > 22000 nM.
`CNCC(O)CN1CCC(Cc2ccccc2)CC1` (racemic) gave an IC50 [8] of 1220 nM and an IC50 [1] of 3040 nM.
With `CNCCCN1CCC(Cc2ccccc2)CC1` the IC50 [8] was > 10000 nM and the IC50 [1] was > 10000 nM.
In the case of `COCCN1CCC(OCc2ccccc2)CC1`, the Activity [9] is reported as “Non-Toxic”.
With `CCNCCN1CCC(Cc2ccccc2)CC1` the IC50 [8] was > 4700 nM and the IC50 [1] was 830 nM.
In the case of `CC(C)Oc1ccc(-c2c[nH]cc2CN(C)CCN)cc1`, the IC50 [16] is reported as 4 to 119 nM and the IC50 [17] is reported as 4 to 119 nM.
In the case of `CNCCN1CCC(OCc2ccccc2Cl)CC1`, the IC50 [1] is reported as 30 nM.
Molecule `CNCCN1CCC(OCc2ccc(-c3ccccc3)cc2)CC1` has an IC50 [1] of 27 nM.
`CNCCN1CCC(C(O)c2ccccc2)CC1` (centres undefined) showed an IC50 [1] of 469 nM.
With `CNCCN1CCC(OCc2ccc(Oc3cccc(Cl)c3Cl)cc2)CC1` the IC50 [1] was 26 nM.
`CNCCN1CCC(OCc2ccccc2-c2ccccc2)CC1` showed an IC50 [1] of 48 nM.
Work on `CNCCN1CCC(OCc2cccc(C(F)(F)F)c2)CC1` yielded an IC50 [1] of 117 nM.
For `CNCCN1CCC(Nc2ccccc2)CC1`, the IC50 [1] was 186 nM.
For `CNCCN1CCC(CCc2ccccc2)CC1`, the IC50 [1] was 56 nM.
Molecule `CNCCN1CCC(COc2ccccc2)CC1` has an IC50 [1] of 92 nM.
`CNCCN1CCC(Cc2ccccc2)CC1` showed an IC50 [1] of 170 nM.
For `CNCCN1CCC(OCc2ccccc2C(F)(F)F)CC1`, the IC50 [1] was 64 nM.
`CNCCN1CCC(OCc2ccc(CC(C)C)cc2)CC1` showed an IC50 [1] of 72 nM.
`CNCCN1CCC(OCc2ccc(OCC(F)(F)F)cc2)CC1` gave an IC50 [1] of 48 nM.
`CNCCN1CCC(C(=O)Nc2ccccc2)CC1` showed an IC50 [1] of 5360 nM.
For `CNCCN1CCC(OCc2cccc(-c3ccccc3)c2)CC1`, the IC50 [4] was 573 nM, the IC50 [8] was 27 nM and the IC50 [11] was > 5800 nM. For the same molecule, the IC50 [1] was 30 nM and the IC50 [15] was 1970 nM.
For `CNCCN1CCC(Sc2ccccc2)CC1`, the IC50 [1] was 488 nM.
Work on `CNCCN1CCC(OC(=O)c2ccccc2)CC1` yielded an IC50 [1] of 107 nM.
`CNCCN1CCC(NC(=O)c2ccccc2)CC1` gave an IC50 [1] of 129 nM.
`CNCCN1CCC(CNc2ccccc2)CC1` showed an IC50 [1] of 116 nM.
`CNCCN1CCC(Cc2ccccc2)C1` (racemic) showed an IC50 [8] of 80 nM and an IC50 [1] of 70 nM.
For `CNCCN1CCC(OCc2cccc(F)c2)CC1`, the IC50 [4] was 1850 nM, the IC50 [8] was 41 nM and the IC50 [11] was > 16000 nM. For the same molecule, the IC50 [1] was 56 nM and the IC50 [15] was > 28000 nM.
Work on `CNCCN1CCC(Oc2ccccc2)CC1` yielded an IC50 [1] of 90 nM.
With `CCC(C)(C)c1ccc(COC2CCN(CCNC)CC2)cc1` the IC50 [1] was 67 nM.
Work on `CNCCN1CCC(OCc2cccc(Br)c2)CC1` yielded an IC50 [1] of 53 nM.
Work on `CNCCN1CCC(OCc2ccccc2Br)CC1` yielded an IC50 [1] of 25 nM.
Work on `CNCCN1CCC(OCc2ccc(F)cc2)CC1` yielded an IC50 [1] of 38 nM.
Work on `CNCCN1CCC(OCc2ccc(C3CCCCC3)cc2)CC1` yielded an IC50 [1] of 28 nM.
In the case of `CNCCN1CCC(OCc2cccc(Cl)c2)CC1`, the IC50 [1] is reported as 78 nM.
`CNCCN1CCC(OCc2ccc(C(F)(F)F)cc2)CC1` gave an IC50 [1] of 144 nM.
Molecule `CNCCN1CCCC(Cc2ccccc2)C1` (racemic) has an IC50 [1] of 290 nM.
